Results reported in patent publication US4182760A, “Benzophenone anti-oximes, diazepin-N-oxides, and their use as pharmaceutical agents and as intermediates for pharmaceutical agents” (E. I. Du Pont de Nemours and Company, priority 1977, dated 1980).

What was measured:
tactile pinna reflex = assay: Tactile Pinna Reflex test (loss of tactile pinna reflex); format: in vivo, mouse; conditions: fasted female white mice, intubated (oral), tested at 0.5, 2, 5 and 24 hours; for ED50: Mus musculus, read-out: Mouse ED50, Pinna Reflexes, Tactile
Description: (§1) Standard procedures for detecting and comparing the tranquilizer, muscle-relaxant, and sedative activity of compounds in this series for which there is a correlation with human efficacy are the following: pinna reflex tests, prehensile traction reflex tests, a muscle relaxant (anti-Straub tail) test, an antipentylenetetrazole test, and a mouse activity supression test (MAST).
(§2) Fasted female white mice, 5 per dose are intubated with drug at 4, 12, 36, 108 and 324 mg/kg in 1% Methocel®-1.25% Tween 80®, at 10 ml/kg. The auditory and tactile pinna are tested at 0.5, 2, 5 and 24 hours.
The mouse is held by the tail and the hairs inside the right ear are touched by the fine wire stylus from a 27 gauge needle. Failure of the mouse to twitch or move the head constitutes loss of the tactile pinna reflex.
(§3) Potency in the antipentylenetetrazole (PTZ) and the MAST indicates a potent antianxiety agent. Great potency for blockade of the mouse auditory pinna reflex with little or no effect on tactile pinna reflex is characteristic of minor tranquilizers. Centrally acting skeletal muscle relaxants profoundly affect the lift reflex with little effect on the grip reflex.
(§4) The following table includes the results of these tests conducted with the compounds of this invention; it also includes the results for diazepam and chlordiazepoxide, two well-known benzodiazepines widely-used commercially as tranquilizers.

lift reflex = assay: Prehensile traction test, lift reflex; format: in vivo; conditions: loss of lift reflex; for ED50: mouse, read-out: Mouse ED50, Prehensile Reflexes, Lift
Source text: as §1, with “prehensile traction” left out
(§5) The mouse is gently swung by the tail toward a horizontal 12 gauge wire tautly stretched 25 cm above the bench. After the mouse grasps the wire with its forepaws, its posterior end is held directly below the wire. A normal mouse grasps the wire with its forepaws and immediately lifts its hind limbs to the wire. Failure to grasp the wire with the forepaws in one of 2 trials constitutes loss of the grip reflex; failure to lift the hind limbs to grasps the wire with at least one hind paw within 5 seconds constitutes loss of the lift reflex.
as §3, §4

[1] = tested on: shock-induced suppression of exploratory locomotor behavior; assay: Mouse activity suppression test (MAST); format: in vivo; conditions: fasted female white mice, dosed orally, 0.2 ma shock for 2.0 seconds per crossing; for ED20: Mus musculus, po
Source text: as §1
MOUSE ACTIVITY S[…] (MAST)
The mouse activity s[…] (MAST) is a model system designed to detect compounds with possible antianxiety activity in humans. […] The punishment, an electric shock applied through the mouse's paws, quickly extinguishes normal behavior.
The test procedure is modified from Boissier, et al., European J. Pharm., 4, 145-151 (1968). Female white mice, fasted 16-22 hours, are randomly distributed to fiberglass holding boxes. Mice in groups of 10-20 are dosed orally and returned to their holding boxes until test time. Test drug suspensions or solutions are prepared by sonication in 1% Methocel®. Typical dose ranges include 0.5, 1, 2, and 4 mg/kg of 1, 3, 9, 27, 81 mg/kg plus a vehicle control and are selected to include one dose at which an effect such as sedation, stimulation, muscle weakness or analgesia was seen.
The test apparatus is an opaque, black plastic box with a clear lid and a stainless steel grid floor. The floor of the test box is marked off into four squares of equal size.
After dosing, a mouse is gently placed in one corner of the testing box and during the next minute each time the mouse makes a full crossing from one square section of the box to another the floor is electrified with 0.2 ma current for 2.0 seconds.
The number of shocks received by each mouse is recorded and the mean number of shocks/dose (X) is determined. When X drug at any dose is statistically greater than X controls (Kruskal-Wallis test in S. Siegel^1), antagonism of suppression obtains and the drug is presumed to have antianxiety activity.
^1 S. Siegel: Non-parametric Statistics for Behavioral Sciences, pp. 184-194, McGraw-Hill (1956).
as §3, §4

[2] = tested on: pentylenetetrazole (PTZ) clonic convulsions; assay: Antipentylenetetrazole (PTZ) test; format: in vivo, mouse; conditions: fasted female white mice, intubated (oral), PTZ 40 mg/kg i.v. 30 min later; for ED50: Mus musculus, 0.5 h
Source text: as §1
ANTIPENTYLENETETRAZOLE (PTZ) TEST
Fasted female white mice, 10 per dose are intubated with drug in vehicle as above at doses such as 0, 1, 3, 9, 27 and 81 mg/kg. Thirty minutes later the mice are dosed intravenously with PTZ (Metrazol®^1) at 40 mg/kg (ED98 for clonic convulsions). Dosed animals which remain on a 4"×4" platform for 20 seconds are considered protected. Quantal ED50's are calculated by the moving average method.
^1 Original brand of pentylenetetrazole; sterile 10% aqueous solution for parenteral injection, Knoll Pharmaceutical Company.
as §3, §4

[3] = tested on: morphine-induced Straub tail; assay: Muscle relaxant (anti-Straub tail) test; format: in vivo, mouse; conditions: fasted female white mice, intubated (oral), morphine sulfate 53.7 mg/kg s.c. at 25 min, observed 30 min after test drug; for ED50: Mus musculus, 0.5 h
Source text: as §1
MUSCLE RELAXANT (ANTI-STRAUB TAIL) TEST
Fasted female white mice, 5 per dose are intubated with test drug. Twenty-five minutes later morphine sulfate is given subcutaneously at 53.7 mg/kg. Thirty minutes after test drug the mice are observed for presence of Straub tail. Quantal ED50 values for blockade of morphine-induced Straub tail are calculated.
as §3, §4

grip reflex = assay: Prehensile traction test, grip reflex; format: in vivo; conditions: loss of grip reflex; for ED50: mouse, read-out: Mouse ED50, Prehensile Reflexes, Grip
Source text: as §1, with “prehensile traction” left out
as §5, §3, §4

auditory pinna reflex = assay: Auditory Pinna Reflex test (loss of auditory pinna reflex); format: in vivo, mouse; conditions: fasted female white mice, intubated (oral), tested at 0.5, 2, 5 and 24 hours; for ED50: Mus musculus, read-out: Mouse ED50, Pinna Reflexes, Auditory
Description: as §1, §2
The mouse is placed on a horizontal bar 9 cm from a Galton whistle adjusted for 13 Kc. Failure to flatten the ears during one or two short bursts of sound constitutes loss of auditory pinna reflex.
as §3, §4

Q: Which ED50 (tactile pinna reflex) does the source give for `CN1C(=O)CN=C(c2ccccc2)c2cc(Cl)ccc21` [Diazepam] here?
A: 109 mg/kg

Q: What about the ED50 (lift reflex) of the same compound?
A: 6 mg/kg

Q: What about the ED20 [1] of the same compound?
A: 0.45 mg/kg

Q: What about the ED50 [2] of the same compound?
A: 1.3 mg/kg

Q: And the ED50 [3]?
A: 0.25 mg/kg

Q: What about the ED50 (grip reflex) of the same compound?
A: 97 mg/kg

Q: And the ED50 (auditory pinna reflex)?
A: 4 mg/kg

Q: For `CN1C(=O)C(F)[N+]([O-])=C(c2ccccc2)c2cc(Cl)ccc21` (stereo not shown) [(II), 7-Chloro-3-fluoro-1,3-dihydro-1-methyl-5-phenyl-2H-1,4-benzodiazepin-2-one 4-Oxide], which ED50 (tactile pinna reflex) is on record?
A: > 450 mg/kg

Q: What about the ED50 (lift reflex) of the same compound?
A: 62 mg/kg

Q: And the ED20 [1]?
A: 0.35 mg/kg

Q: What about the ED50 [2] of the same compound?
A: 3.9 mg/kg

Q: What about the ED50 [3] of the same compound?
A: 1.7 mg/kg

Q: And the ED50 (grip reflex)?
A: > 450 mg/kg

Q: And the ED50 (auditory pinna reflex)?
A: 62 mg/kg

Q: With `CNC1=Nc2ccc(Cl)cc2C(c2ccccc2)=[N+]([O-])C1` [Chlordiazepoxide] as the compound, how does the ED50 (tactile pinna reflex) read?
A: 209 mg/kg

Q: And the ED50 (lift reflex)?
A: 11 mg/kg

Q: What about the ED20 [1] of the same compound?
A: 1.9 mg/kg

Q: And the ED50 [2]?
A: 4.5 mg/kg

Q: And the ED50 [3]?
A: 1.9 mg/kg

Q: What about the ED50 (grip reflex) of the same compound?
A: 232 mg/kg

Q: And the ED50 (auditory pinna reflex)?
A: 17 mg/kg

Q: With “5-Chloro-2-(N-methyl-N-chlorofluoroacetamido)benzophenone anti-Oxime [(I)]” as the compound, how does the “Mouse ED50, Pinna Reflexes, Tactile” value (tactile pinna reflex) read?
A: 360.

Q: And the “Mouse ED50, Prehensile Reflexes, Lift” value (lift reflex)?
A: 36.

Q: What about the “Mast ED20%” value [1] of the same compound?
A: 3.5

Q: What about the “Mouse ED50, PTZ” value [2] of the same compound?
A: 4.5

Q: What about the “Mouse ED50, Muscle Relaxant” value [3] of the same compound?
A: 5.8

Q: And the “Mouse ED50, Prehensile Reflexes, Grip” value (grip reflex)?
A: 70.

Q: And the “Mouse ED50, Pinna Reflexes, Auditory” value (auditory pinna reflex)?
A: 23.
